Laboratory results reported in patent publication US20260069604A1, “NOVEL EQUILIBRATIVE NUCLEOSIDE TRANSPORTER INHIBITORS AND METHODS OF MAKING AND USING SAME” (Duke University, priority 2022, published 2026).
Numbering of substitutions follows the chain as printed. “Also recorded” adds a separate entry of the source.

Assays:
hENT1cryst = target: T1, hENT1cryst (Homo sapiens, UniProt Q99808, DEL243-274/L168F/N288K/P175A); experiment: cold-competition SPA: displacement of 3H-NBMPR from detergent purified hENT1cryst; assay type: binding
T1 construct: GFP; FLAG; His10; made in house
T1 sequence (Q99808 with tags, fused parts or gaps L168F/P175A/DEL243-274/N288K): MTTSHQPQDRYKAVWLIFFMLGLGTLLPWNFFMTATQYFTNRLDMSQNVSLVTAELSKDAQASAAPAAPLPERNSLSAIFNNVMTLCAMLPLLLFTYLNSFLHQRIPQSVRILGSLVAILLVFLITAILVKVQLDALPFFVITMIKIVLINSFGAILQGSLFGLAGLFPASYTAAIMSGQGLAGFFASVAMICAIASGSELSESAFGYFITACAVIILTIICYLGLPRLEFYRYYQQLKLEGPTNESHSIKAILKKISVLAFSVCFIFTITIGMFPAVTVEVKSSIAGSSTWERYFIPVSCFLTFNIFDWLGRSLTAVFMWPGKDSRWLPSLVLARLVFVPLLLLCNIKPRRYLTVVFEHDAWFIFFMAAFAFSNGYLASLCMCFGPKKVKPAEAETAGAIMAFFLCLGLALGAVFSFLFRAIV
Description: The binding of cold competitor (dilazep control or JH-ENT-01) to hENT1cryst (85 nM) was assessed by the displacement of ^3H-NBMPR (10 nM) from the transporter (n=6 technical replicates from two representative experiments shown, error bars represent S.E.M.) FIG. 18A-C show initial functional characterization of novel hENT1 inhibitors.
A scintillation proximity assay was developed to measure binding of ^3H-NBMPR to hENT1-GFP fusion expressed and detergent solubilized from transiently transfected HEK293T cells (see Methods for details). By successively heating the assay mixture at increasing temperatures and measuring binding signal with scintillation counting, Tm values were determined for engineered hENT1 constructs bearing point mutations or truncations of disordered loops. Point mutations were designed based on a consensus approach, which is described in the Methods section of this chapter. A total of 40 point mutations or disordered-loop truncations were screened with this ^3H-NBMPR SPA approach (FIG. 4A). Mutations L168F, P175A and N288K were identified to substantially increase Tm. […] Importantly, hENT1cryst mediates nucleoside transport to a level consistent with a previous report in proteoliposomes (FIG. 3A) and is also functionally active in when expressed in oocytes (FIG. 3B). […]

hENT1 = target: T2, hENT1 (Homo sapiens, UniProt Q99808); experiment: 3H-adenosine uptake in oocytes expressing hENT1; assay type: cell-based; conditions: initial experiment n=1, FIG. 19
T2 construct: expressed in transfected cells; host or cells: oocytes (X. laevis)
T2 sequence (Q99808 1-456): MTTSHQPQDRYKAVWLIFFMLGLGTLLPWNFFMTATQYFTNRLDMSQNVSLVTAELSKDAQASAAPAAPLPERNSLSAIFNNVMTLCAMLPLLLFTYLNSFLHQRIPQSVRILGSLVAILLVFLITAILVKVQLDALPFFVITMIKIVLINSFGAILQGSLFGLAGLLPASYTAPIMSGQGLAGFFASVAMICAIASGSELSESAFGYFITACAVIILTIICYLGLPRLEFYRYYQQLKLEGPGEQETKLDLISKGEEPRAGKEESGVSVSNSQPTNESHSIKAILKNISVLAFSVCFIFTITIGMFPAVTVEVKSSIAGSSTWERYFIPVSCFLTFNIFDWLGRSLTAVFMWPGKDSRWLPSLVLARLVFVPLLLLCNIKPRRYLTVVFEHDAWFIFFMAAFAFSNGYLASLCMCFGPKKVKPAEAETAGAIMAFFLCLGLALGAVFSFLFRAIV
Description: (§1) Initial experiment (n=1 replicates) showing JH-ENT-01 inhibits both hENT1 and hENT2 mediated uptake of ^3H-adenosine.
(§2) The subtype specificities for these compounds are currently unknown and pending further investigation with functional assays. Towards this end, established assays in oocytes permitted the measurement of nucleoside transport activity for multiple ENT subtypes (FIG. 18C) and the novel inhibitors were tested for their activities on different ENT subtypes (FIG. 19).

hENT2 = target: T3, hENT2 (Homo sapiens, UniProt Q14542); experiment: 3H-adenosine uptake in oocytes expressing hENT2; assay type: cell-based; conditions: initial experiment n=1, FIG. 19
T3 construct: expressed in transfected cells; host or cells: oocytes (X. laevis)
T3 sequence (Q14542 1-456): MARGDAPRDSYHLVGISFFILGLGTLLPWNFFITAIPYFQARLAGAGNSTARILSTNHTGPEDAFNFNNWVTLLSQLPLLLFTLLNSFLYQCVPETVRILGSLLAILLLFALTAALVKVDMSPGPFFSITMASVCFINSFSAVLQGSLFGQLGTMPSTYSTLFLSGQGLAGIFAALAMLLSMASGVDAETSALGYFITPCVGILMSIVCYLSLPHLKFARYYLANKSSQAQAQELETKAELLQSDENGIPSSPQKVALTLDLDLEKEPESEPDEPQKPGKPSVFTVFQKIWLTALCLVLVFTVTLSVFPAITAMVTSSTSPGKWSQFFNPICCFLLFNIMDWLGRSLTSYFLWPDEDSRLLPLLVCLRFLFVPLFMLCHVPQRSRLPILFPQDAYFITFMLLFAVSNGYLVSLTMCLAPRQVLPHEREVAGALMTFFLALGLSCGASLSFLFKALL
Description: as §1, §2

[1] = plasma, brain and spinal cord pharmacokinetics after subcutaneous dosing; assay type: in vivo, Male CD-1 mice; conditions: for distribution into CNS tissue: brain and spinal cord, s.c. dosing, in equilibrium with plasma, no accumulation
Description: FIG. 27A-D show plasma (FIG. 27A), brain (FIG. 27B), and spinal cord (FIG. 27C) pharmacokinetics (PK) of JH-ENT-01 and dilazep. […] Male CD-1 mice (n=3 per time-point) were dosed subcutaneously (inj. volume: 8 μL/g BW) with 30 mg/kg of JH-ENT-01 (free base) and 29 mg/kg (molar equivalent) of dilazep dihydrochloride. Both drugs were formulated in 5% DMSO, 20% PEG-400, 20% propylene glycol, and 55% saline. Blood and tissues were collected at 10 min, 0.5, 1.5, 4.5, 8, 12, and 24 h. Following collection, the animals were perfused with saline. Liquid chromatography-tandem-mass spectrometry (LC/MS/MS) was used to determine drug concentration in samples. Pharmacokinetic parameters were calculated by non-compartmental approach within Win-Nonlin software. […] The distribution of both drugs into CNS tissue is high and is in equilibrium with plasma drug concentration (i.e., no drug accumulation in CNS).

[2] = system: SNI-induced neuropathic pain; experiment: SNI-induced neuropathic pain measured by PWF; assay type: in vivo; conditions: i.t., 100 nmol; p<0.05; n=4 males per group
[3] = target: T4, hENT1cryst mutants (M33I, F307A, F307Y) (Homo sapiens, UniProt Q99808, DEL244-275/F307A/L168F/N288K/P175A); experiment: cold competition displacement of 3H-NBMPR by dilazep, hENT1cryst mutants; assay type: binding; conditions: F307A mutant vs hENT1cryst
T4 construct: GFP; FLAG; His10; made in house
T4 sequence (Q99808 with tags, fused parts or gaps L168F/P175A/DEL244-275/N288K/F307A): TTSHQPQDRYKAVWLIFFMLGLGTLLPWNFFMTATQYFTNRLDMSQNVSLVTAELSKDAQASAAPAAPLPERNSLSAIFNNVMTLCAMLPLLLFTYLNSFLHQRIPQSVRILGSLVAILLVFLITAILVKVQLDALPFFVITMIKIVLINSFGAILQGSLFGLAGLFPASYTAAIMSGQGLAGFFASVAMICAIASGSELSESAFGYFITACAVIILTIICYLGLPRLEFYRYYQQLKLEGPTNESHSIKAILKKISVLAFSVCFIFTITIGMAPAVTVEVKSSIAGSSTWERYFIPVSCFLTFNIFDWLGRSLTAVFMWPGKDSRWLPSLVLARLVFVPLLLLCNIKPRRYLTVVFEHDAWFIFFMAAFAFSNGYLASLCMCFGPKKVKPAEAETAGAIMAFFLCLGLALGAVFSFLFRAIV
Source text: (§3) This is substantiated by the equilibrium binding data, as both Q158S and Q158N ablate 3H-NBMPR binding capacity (FIG. 13B). […] This finding is consistent with previous reports on inhibitor sensitivities to substitutions at position 33 of hENT1.

[4] = target: T5, hENT1cryst mutants (M33I, F307A, F307Y) (Homo sapiens, UniProt Q99808, DEL244-275/F307Y/L168F/N288K/P175A); experiment: as above; assay type: binding; conditions: F307Y mutant vs hENT1cryst
T5 construct: GFP; FLAG; His10; made in house
T5 sequence (Q99808 with tags, fused parts or gaps L168F/P175A/DEL244-275/N288K/F307Y): T4 sequence (Q99808 with tags, fused parts or gaps L168F/P175A/DEL244-275/N288K/F307A) with A274Y
Source text: as §3

[5] = target: T6, hENT1cryst mutants (M33I, F307A, F307Y) (Homo sapiens, UniProt Q99808, DEL244-275/L168F/M33I/N288K/P175A); experiment: as above; assay type: binding; conditions: M33I mutant vs hENT1cryst
T6 construct: GFP; FLAG; His10; made in house
T6 sequence (Q99808 with tags, fused parts or gaps M33I/L168F/P175A/DEL244-275/N288K): T4 sequence (Q99808 with tags, fused parts or gaps L168F/P175A/DEL244-275/N288K/F307A) with M32I, A274F
Source text: as §3

[6] = s.c. 30 mg/kg JH-ENT-01 (free base) vs 29 mg/kg dilazep dihydrochloride

## COc1cc(C(=O)OCCCN2CCCN(CCCOC(=O)c3cc(OC)c(OC)c(OCc4ccc([N+](=O)[O-])cc4)c3)CC2)cc(OC)c1OC [JH-ENT-01]
hENT1cryst; cold competitor vs dilazep control, hENT1cryst 85 nM, 3H-NBMPR 10 nM
  increase in binding affinity to hENT1cryst: ~2 fold
hENT1cryst; in words, compared to dilazep (FIG. 17)
  binding to target: improved binding to target compared to dilazep
hENT1
  inhibition of hENT1 mediated uptake of 3H-adenosine: inhibits; also recorded: retains potent inhibition activity
hENT2
  inhibition of hENT2 mediated uptake of 3H-adenosine: inhibits
[1]
  distribution into CNS tissue: high
[1]; [6]
  half-life compared to dilazep: longer half-life
  plasma AUC compared to dilazep: higher plasma AUC
[2]
  effect on SNI-induced neuropathic pain (PWF): reversing SNI-induced neuropathic pain

## COc1cc(C(=O)OCCCN2CCCN(CCCOC(=O)c3cc(OC)c(OC)c(OC)c3)CC2)cc(OC)c1OC [dilazep]
[3]
  increase in apparent Kd for dilazep: ~90 fold
[4]
  decrease in apparent Kd for dilazep: ~4 fold
[5]
  increase in apparent Kd for dilazep: ~3 fold
[1]
  distribution into CNS tissue: high
